Molecules are shown by their SMILES.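 All cell lines were grown in 96-well plates and treated with compound for 48 hours. GI50: concentration for 50% inhibition of growth.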 The source made the active and inactive calls. No stated cut-off is given here; in the data, active = GI50 up to about 1.1 µM and inactive = higher.

Some test systems named below: SW-620; SR; UACC-257; NCI-H23; RXF 393; U-251; ACHN; LOX IMVI; HOP-92; HL-60; SK-MEL-2; M14; OVCAR-4; MOLT-4; RPMI-8226; OVCAR-8; NCI-H522; COLO 205; NCI/ADR-RES.
Common to all, as to assay: growth of human tumour cells (NCI), 48 h

Take `C=C(Br)C(C)(Br)CCC(Br)C(C)(C)Br` (stereo unspecified): the GI50 is 28.4 µM (inactive) with SW-620; 13.4 µM (inactive) with SR; 36.8 µM (inactive) with UACC-257; 36.4 µM (inactive) in the assay with NCI-H23; 46.6 µM (inactive) with RXF 393; 17.1 µM (inactive) in the assay on U-251. In addition, the GI50 with ACHN is 57.7 µM (inactive); in the assay on LOX IMVI, 16.5 µM (inactive); with HOP-92 it was 18.6 µM (inactive); with HL-60, 23.1 µM (inactive); with SK-MEL-2, 24.5 µM (inactive); with M14, 23.7 µM (inactive). The GI50 with OVCAR-4 is 39.4 µM (inactive); in the assay with MOLT-4, 24.3 µM (inactive); in the assay with RPMI-8226, 21.7 µM (inactive); in the assay on OVCAR-8 it was 17.5 µM (inactive); in the assay with NCI-H522 it was 14.7 µM (inactive); with COLO 205, 19.3 µM (inactive).
For the compound `COC(=O)/C(=N\N)C(C(=O)C(=O)Nc1nnc(S)[nH]1)c1nc2ccc([N+](=O)[O-])cc2nc1O` (stereo unspecified), the GI50 in the assay with SW-620, in the assay with SR, in the assay with UACC-257, with NCI-H23, in the assay on RXF 393 and in the assay with U-251 was > 100 µM (inactive) throughout. Moreover, the GI50 in the assay on ACHN, in the assay with LOX IMVI, with HOP-92, in the assay on HL-60, in the assay with SK-MEL-2 and with M14 was > 100 µM (inactive) each time. Further, the GI50 with OVCAR-4, with MOLT-4, with RPMI-8226, in the assay with OVCAR-8, in the assay with NCI-H522 and in the assay with COLO 205 was > 100 µM (inactive) throughout.
Consider `CO[C@@H]1C=C[C@@]23c4cc5c(cc4C(=O)O[C@H]2CN(C)[C@H]3C1)OCO5`, for which the GI50 in the assay on SW-620, in the assay with SR, with UACC-257, in the assay on NCI-H23, with RXF 393 and in the assay on U-251 was > 100 µM (inactive) each time. In addition, the GI50 with ACHN, in the assay on LOX IMVI, in the assay on HOP-92, with HL-60, with SK-MEL-2 and in the assay with M14 was > 100 µM (inactive) each time. The GI50 in the assay with OVCAR-4, in the assay with MOLT-4, in the assay on RPMI-8226, in the assay with OVCAR-8, with NCI-H522 and with COLO 205 was > 100 µM (inactive) in each case.
Take `COc1ccccc1OCC(COC(=O)Nc1ccc(C)cc1)OC(=O)Nc1ccc(C)cc1` (stereo unspecified): the GI50 in the assay with SW-620 was 14.9 µM (inactive); in the assay with SR it was 22.4 µM (inactive); in the assay with UACC-257 it was 19.3 µM (inactive); in the assay on NCI-H23, 23.2 µM (inactive); in the assay with RXF 393 it was 7.19 µM (inactive); in the assay on U-251, 13.8 µM (inactive). The GI50 in the assay on ACHN was 21.8 µM (inactive); in the assay on LOX IMVI, 15.8 µM (inactive); in the assay with HOP-92 it was 7.59 µM (inactive); with HL-60 it was 15 µM (inactive); in the assay on SK-MEL-2, 13.8 µM (inactive); with M14 it was 19.2 µM (inactive). The GI50 is 18.9 µM (inactive) in the assay with MOLT-4; 16.3 µM (inactive) in the assay on RPMI-8226; 17 µM (inactive) with OVCAR-8; 16.1 µM (inactive) with NCI-H522; 18.2 µM (inactive) in the assay on COLO 205.
On to `COc1cc(O)c(C(C)=O)c(O)c1`, for which the GI50 was > 100 µM (inactive) in the assay with SW-620; 36.3 µM (inactive) with SR; > 100 µM (inactive) in the assay with NCI/ADR-RES; > 100 µM (inactive) with UACC-257; 30.8 µM (inactive) with NCI-H23; > 100 µM (inactive) with RXF 393. The GI50 in the assay with U-251 is 63.8 µM (inactive); in the assay with ACHN, 42.7 µM (inactive); with LOX IMVI it was 75.9 µM (inactive); in the assay with HOP-92, 25 µM (inactive); in the assay with SK-MEL-2, 78.9 µM (inactive); in the assay on M14, 86.9 µM (inactive). Also, the GI50 in the assay on OVCAR-4 was 76.2 µM (inactive); in the assay with OVCAR-8, 55.2 µM (inactive); with NCI-H522 it was 43.1 µM (inactive); in the assay on COLO 205 it was > 100 µM (inactive).
Regarding `CN1C(=O)C2(C=CC(O)CC2)c2ccccc21` (stereo unspecified), the GI50 with SW-620, in the assay on SR, in the assay with NCI/ADR-RES, with UACC-257, in the assay on NCI-H23 and with U-251 was > 100 µM (inactive) throughout. The GI50 in the assay on ACHN, in the assay with LOX IMVI, in the assay on HOP-92, in the assay with HL-60, in the assay on SK-MEL-2 and in the assay on M14 was > 100 µM (inactive) throughout. The GI50 in the assay on OVCAR-4, with MOLT-4, in the assay with RPMI-8226, in the assay on OVCAR-8, with NCI-H522 and with COLO 205 was > 100 µM (inactive) throughout.
For `CCOC(=O)C1C(=O)c2cccc(OC)c2C2COC(=O)N12` (stereo unspecified), the GI50 in the assay on SW-620, in the assay on SR, in the assay with UACC-257, in the assay on NCI-H23, in the assay on RXF 393 and in the assay on U-251 was > 100 µM (inactive) in each case. Besides, the GI50 in the assay on ACHN, in the assay with LOX IMVI, in the assay on HOP-92, with HL-60, with SK-MEL-2 and with M14 was > 100 µM (inactive) throughout. Also, the GI50 in the assay with OVCAR-4, in the assay on MOLT-4, in the assay with RPMI-8226, with OVCAR-8, in the assay on NCI-H522 and with COLO 205 was > 100 µM (inactive) throughout.
As for `[O-][n+]1c2cc(CBr)c(CBr)cc2[n+]([O-])c2c(O)cccc21`, the GI50 with SW-620 was 1.56 µM (inactive); with SR it was 0.248 µM (active); in the assay on UACC-257, 2.38 µM (inactive); in the assay on NCI-H23, 2.72 µM (inactive); in the assay on RXF 393 it was 1.76 µM (inactive); in the assay on U-251 it was 2.9 µM (inactive). For the same compound, the GI50 is 1.81 µM (inactive) in the assay with ACHN; 1.35 µM (inactive) with LOX IMVI; 1.05 µM (active) in the assay on HOP-92; 0.388 µM (active) in the assay on HL-60; 2.22 µM (inactive) in the assay on SK-MEL-2; 1.75 µM (inactive) in the assay on M14. Besides, the GI50 in the assay on OVCAR-4 is 1.8 µM (inactive); in the assay with MOLT-4 it was 0.344 µM (active); with RPMI-8226 it was 1.53 µM (inactive); in the assay with OVCAR-8, 1.82 µM (inactive); in the assay on NCI-H522 it was 0.538 µM (active); with COLO 205, 1.77 µM (inactive).
For the compound `O=c1ss/c(=N\c2ccccc2)n1-c1ccccc1`, the GI50 in the assay on SW-620 is 24.4 µM (inactive); with SR, 17.3 µM (inactive); in the assay with NCI/ADR-RES, 28.3 µM (inactive); in the assay on UACC-257, 20.4 µM (inactive); in the assay on NCI-H23 it was 21.7 µM (inactive); in the assay with U-251, 23.2 µM (inactive). The GI50 in the assay with ACHN is 17.1 µM (inactive); in the assay with LOX IMVI, 19.3 µM (inactive); in the assay on HOP-92, 21.6 µM (inactive); with HL-60, 31.1 µM (inactive); in the assay with SK-MEL-2, 23.2 µM (inactive); in the assay on M14, 19 µM (inactive). The GI50 with OVCAR-4 is 17 µM (inactive); with MOLT-4, 28.7 µM (inactive); with RPMI-8226 it was 21.4 µM (inactive); in the assay with OVCAR-8 it was 16.8 µM (inactive); in the assay on COLO 205, 26.1 µM (inactive).
With `Nc1nc[n+](Cc2ccccc2)c2ncn(Cc3ccccc3)c12`, the GI50 was > 100 µM (inactive) with SW-620; 35.3 µM (inactive) with SR; 63.8 µM (inactive) in the assay on UACC-257; 97.7 µM (inactive) with NCI-H23; 20.2 µM (inactive) with RXF 393; 45.7 µM (inactive) with U-251. Moreover, the GI50 in the assay on ACHN is > 100 µM (inactive); in the assay with LOX IMVI, > 100 µM (inactive); with HOP-92, 19.2 µM (inactive); with HL-60, 32.3 µM (inactive); with SK-MEL-2 it was > 100 µM (inactive); with M14, 23.7 µM (inactive). Moreover, the GI50 was > 100 µM (inactive) in the assay on OVCAR-4, > 100 µM (inactive) in the assay on OVCAR-8, 81.3 µM (inactive) with NCI-H522 and 26.7 µM (inactive) in the assay with COLO 205.
Regarding `COc1cc2c(c(OC)c1OC)-c1ccc(SC)c(=O)cc1[C@@H](NCc1cccc([N+](=O)[O-])c1)CC2`, the GI50 with SW-620 is < 0.01 µM (active); with SR it was > 100 µM (inactive); in the assay with UACC-257, < 0.01 µM (active); with NCI-H23, < 0.01 µM (active); in the assay on RXF 393 it was < 0.01 µM (active); with U-251, < 0.01 µM (active). Also, the GI50 with ACHN, in the assay on LOX IMVI, with HOP-92, with HL-60, with SK-MEL-2 and in the assay with M14 was < 0.01 µM (active) in each case. Moreover, the GI50 with OVCAR-4, in the assay on MOLT-4, in the assay on OVCAR-8, with NCI-H522 and with COLO 205 was < 0.01 µM (active) throughout.

(Values after ChEMBL document CHEMBL1201862, “PubChem BioAssay data set” (2004).)
